Values of other authors as cited in patent US10650914B2, “Fresh water acute criteria prediction method based on quantitative structure-activity relationship for metals” (Chinese Research Academy of Environmental Sciences, priority 2015, dated 2020).

Experiments:
[1] = system: Carp; details: training set
[2] = system: Daphnia magna; details: for Endpoint Index: fatality rate, 48 hours, 13° C., pH 7.6, total hardness 240 mg/L; for Observed value (log-EC50): training set of leave-one-out internal validation

In the case of [Zn] [Zinc], the “Observed value (log-LC50)” value [1] is given as 2.079, the “Endpoint Index” value [2] is given as 0.13 and the “Observed value (log-EC50)” value [2] is given as 0.3010.

In the case of [Fe] [Iron], the “Endpoint Index” value [2] is listed as 2.92 and the “Observed value (log-EC50)” value [2] is listed as 1.7172.

In the case of [Cr] [Chromium], the “Observed value (log-LC50)” value [1] is given as 2.439.

For [Ag] [Silver], the “Endpoint Index” value [2] is listed as 0.014 and the “Observed value (log-EC50)” value [2] is listed as −0.8873.

For [Cu] [Copper], the “Observed value (log-LC50)” value [1] is listed as 1.097, the “Endpoint Index” value [2] is listed as 0.014 and the “Observed value (log-EC50)” value [2] is listed as −0.6601.

For [Cd] [Cadmium], the “Observed value (log-LC50)” value [1] is listed as 0.331.

For [Pb] [Lead], the “Endpoint Index” value [2] is listed as 8.69 and the “Observed value (log-EC50)” value [2] is listed as 1.6231.

For [Ni] [Nickel], the “Observed value (log-LC50)” value [1] is listed as 2.246, the “Endpoint Index” value [2] is listed as 5.7 and the “Observed value (log-EC50)” value [2] is listed as 1.9850.
